{
  "source": "patent US20200392107A1",
  "about": "“CYCLIC AMINE DERIVATIVE AND MEDICAL USE THEREOF” (Toray Industries, Inc., priority 2018, published 2020)",
  "key": {"[1]": {"tested_on": "IL-17 production in mouse splenocytes", "test": "Suppressive effect on IL-17 production by IL-23 stimulation in mouse splenocytes", "format": "cell-based", "settings": "Splenocyte, 72 h, at 5 μmol/L of the test compound, human IL-23 10 ng/mL, cultured 3 days, read-out: IL-17 production inhibition rate (%)", "protocol": "Using mouse splenocytes, the suppressive effect of the cyclic amine derivative (I) or a pharmacologically acceptable salt thereof on IL-17 production by IL-23 stimulation was evaluated by a partially modified method mentioned in The Journal of Biological Chemistry, 2003, Vol. 278, No. 3, p. 1910-1914.\nA single cell suspension was prepared from the spleen of C57BL/6J mice (male or female, 6 to 30 weeks old) (Charles River Laboratories Japan, Inc. or CLEA Japan, Inc.) and splenocytes were prepared using Histopaque-1083 (Sigma-Aldrich Japan). The culture medium was used by adding 10% FBS (Gibco), 50 U/mL of penicillin-50 μg/mL of streptomycin (Gibco), 50 μmol/L of 2-mercaptoethanol (Gibco), and 100 U/mL of human IL-2 (Cell Science & Technology Institute, Inc.) to RPMI1640 medium (Gibco). A test compound was dissolved in DMSO and then diluted with the culture medium to have a final concentration of DMSO of 0.1% before use. Splenocytes (3×10^5 cells/well) prepared in the culture medium were seeded in wells of a 96-well flat-bottom plate (Corning Incorporated), the test compound and 10 ng/mL of human IL-23 (R & D systems, Inc.) were added thereto, and the cells were cultured at 37° C. under 5% CO2 for 3 days. A well without addition of human IL-23 and without addition of the test compound and a well with addition of human IL-23 and without addition of the test compound were prepared. After completion of the culture, the culture supernatant was collected and the IL-17 production amount in the supernatant was determined by ELISA method (R & D systems, Inc.).\nThe IL-17 production inhibition rate (%) was calculated from Formula (2).\nIL-17 production inhibition rate (%)=(1−((IL-17 production amount with addition of IL-23 and with addition of the test compound)−(IL-17 production amount without addition of IL-23 and without addition of the test compound))/((IL-17 production amount with addition of IL-23 and without addition of the test compound)−(IL-17 production amount without addition of IL-23 and without addition of the test compound)))×100 (2)."}, "[2]": {"tested_on": "DNFB-induced mouse allergic dermatitis model", "test": "DNFB-induced mouse allergic dermatitis model", "format": "in vivo", "settings": "10 mg/kg orally one hour before induction; BALB/c mice; vs vehicle, P<0.05", "protocol": "Using increase in the ear swelling rate as an index of exacerbation of symptoms, the effect of the cyclic amine derivative (I) or a pharmacologically acceptable salt thereof in a DNFB-induced mouse allergic dermatitis model was evaluated. The DNFB-induced mouse allergic dermatitis model was prepared by a partially modified method by Curzytek et al. (Pharmacological Reports, 2013, Vol. 65, p. 1237-1246).\nBALB/c mice (female, 6 weeks old) (Charles River Laboratories Japan, Inc.) were used at 8 weeks old after preliminary breeding. To the back of the mice, 25 μL of a 0.5 v/v % DNFB solution dissolved in acetone:olive oil (4:1) was applied. The next day, the same operation was repeated to sensitize the mice. Four days after the sensitization, 10 μL each of a 0.2 v/v % DNFB solution dissolved in acetone:olive oil (4:1) was applied to both sides of the right auricle of the sensitized mice to induce inflammation.\nOne hour before induction, a test compound at a dose of 10 mg/kg was administered to the mice. As the test compound, the compound of Example 1, the compound of Example 4, and the compound of Example 9 were used. The compound of Example 1, the compound of Example 4, and the compound of Example 9 were respectively suspended in a 0.5 w/v % methylcellulose solution and orally administered. The group in which the compound of Example 1 was administered to mice was defined as the Example-1 compound administration group, the group in which the compound of Example 4 was administered was defined as the Example-4 compound administration group, and the group in which the compound of Example 9 was administered was defined as the Example-9 compound administration group. […]\nThe right ear thickness before application of the DNFB solution (before induction) on the induction day and the right ear thickness at the 24th hour after induction were measured with a digital micrometer (Mitutoyo Corporation). The swelling rate of the auricle was calculated by Formula (3) and used as an index of the drug efficacy evaluation: […]"}},
  "data": [
    {"smiles": "CC(=O)N1CCCC[C@@H]1C(=O)Nc1cc(Cl)c2c(c1)CCN2C[C@H]1CC[C@H](C(F)(F)F)CC1", "note": "[Example 9, (R)-1-acetyl-N-(7-chloro-1-((trans-4-(trifluoromethyl)cyclo-hexyl)methyl)indolin-5-yl)piperidine-2-carboxamide]", "values": [
      {"measurement": "inhibition at 5 µM", "setting": "[1]", "value": 99.5, "unit": "%"},
      {"measurement": "increase in the ear swelling rate (24th hour after induction)", "setting": "[2]", "value": "statistically significantly suppressed"}
    ]},
    {"smiles": "CC(=O)N1CCCC[C@@H]1C(=O)Nc1cc(Cl)c2c(c1)CCCN2Cc1ccc(C(F)(F)F)cc1", "note": "[Example 1, (R)-1-acetyl-N-(8-chloro-1-(4-(trifluoromethyl)benzyl)-1,2,3,4-tetrahydroquinolin-6-yl)piperidine-2-carboxamide]", "values": [
      {"measurement": "inhibition at 5 µM", "setting": "[1]", "value": 98, "unit": "%"},
      {"measurement": "increase in the ear swelling rate (24th hour after induction)", "setting": "[2]", "value": "statistically significantly suppressed"}
    ]},
    {"smiles": "CC(=O)N1CCCC[C@@H]1C(=O)Nc1cc(Cl)c2c(c1)CCN2Cc1ccc(C(F)(F)F)cc1", "note": "[Example 4, (R)-1-acetyl-N-(7-chloro-1-(4-(trifluoromethyl)benzyl)indolin-5-yl)piperidine-2-carboxamide]", "values": [
      {"measurement": "inhibition at 5 µM", "setting": "[1]", "value": 99.9, "unit": "%"},
      {"measurement": "increase in the ear swelling rate (24th hour after induction)", "setting": "[2]", "value": "statistically significantly suppressed"}
    ]}
  ]
}
